From ChEMBL document CHEMBL6121041, “Design and synthesis of isatin derivative payloaded peptide-drug conjugate as tubulin inhibitor against colorectal cancer” (Eur J Med Chem, 2025)
Blank lines part the entries; values can stand above or below the compound they belong to. Residues, ends and D or L forms follow the SMILES beside them.

Experiments:
[1] = Cytotoxicity against HUVEC cells assessed as reduction in cell viability incubated for 48 hrs by MTT assay; type: toxicity, cell-based; settings: human
[2] = Cytotoxicity against HK-2 cells assessed as reduction in cell viability incubated for 48 hrs by MTT assay; type: toxicity, cell-based; settings: human
HCT-116 = experiment: Antiproliferative activity against human HCT-116 cells assessed as reduction in cell viability incubated for 48 hrs by MTT assay; type: functional, cell-based; settings: HCT-116, 48 h
786-0 = experiment: Antiproliferative activity against human 786-0 cells assessed as reduction in cell viability incubated for 48 hrs by MTT assay; type: functional, cell-based; settings: 786-0, 48 h
HCC827 = experiment: Antiproliferative activity against human HCC827 cells assessed as reduction in cell viability incubated for 48 hrs by MTT assay; type: functional, cell-based; settings: HCC827, 48 h
K562 = experiment: Antiproliferative activity against human K562 cells assessed as reduction in cell viability incubated for 48 hrs by MTT assay; type: functional, cell-based; settings: K562, 48 h
MGC-803 = experiment: Antiproliferative activity against human MGC-803 cells assessed as reduction in cell viability incubated for 48 hrs by MTT assay; type: functional, cell-based; settings: MGC-803, 48 h
HepG2 = experiment: Antiproliferative activity against human HepG2 cells assessed as reduction in cell viability incubated for 48 hrs by MTT assay; type: functional, cell-based; settings: HepG2, 48 h

Structure (SMILES): CC(=O)N[C@@H](CCCCN)C(=O)N1CCC[C@H]1C(=O)N[C@@H](CO)C(=O)N[C@@H](CO)C(=O)N1CCC[C@H]1C(=O)N1CCC[C@H]1C(=O)N[C@@H](CCC(=O)O)C(=O)N[C@@H](CCC(=O)O)C(N)=O (Ac-KPSSPPEE-NH2)
IC50 at 48 h [1]: > 100 µM | IC50 (HCT-116): > 100 µM

Structure (SMILES): COc1ccc(CN2C(=O)C(=O)c3cc(-c4ccc(OC)cc4)cc([N+](=O)[O-])c32)cc1
IC50 at 48 h [1]: 10.6 µM | IC50 at 48 h [2]: 1.21 µM | IC50 (HCT-116): 0.263 µM | IC50 (786-0): 15.2 µM | IC50 (HCC827): 3.62 µM | IC50 (K562): 0.47 µM | IC50 (MGC-803): 58.2 µM | IC50 (HepG2): > 100 µM

Structure (SMILES): COc1ccc(CN2C(=O)C(=O)c3cc(-c4ccc(CO)cc4)ccc32)cc1
IC50 at 48 h [1]: 18.8 µM | IC50 at 48 h [2]: 12.6 µM | IC50 (HCT-116): 0.786 µM | IC50 (786-0): 40.4 µM | IC50 (HCC827): 34.7 µM | IC50 (K562): 0.81 µM | IC50 (MGC-803): 29.2 µM | IC50 (HepG2): > 100 µM

Second part, led by results:

IC50 (HCT-116): 0.768 µM | IC50 (786-0): 51.4 µM | IC50 (HCC827): 10.1 µM | IC50 (K562): 0.31 µM | IC50 (MGC-803): 19 µM | IC50 (HepG2): 43 µM
Structure (SMILES): COc1ccc(CN2C(=O)C(=O)c3cc(-c4ccc(OC)cc4)ccc32)cc1
IC50 at 48 h [1]: 27.2 µM | IC50 at 48 h [2]: 10.5 µM

IC50 (HCT-116): 1.6 µM | IC50 (786-0): 138 µM | IC50 (HCC827): 12 µM | IC50 (K562): 2.07 µM | IC50 (MGC-803): 86.2 µM | IC50 (HepG2): > 100 µM
Structure (SMILES): COC(=O)c1ccc(-c2ccc3c(c2)C(=O)C(=O)N3Cc2ccc(OC)cc2)cc1
IC50 at 48 h [1]: 81.7 µM | IC50 at 48 h [2]: 8.54 µM

IC50 (HCT-116): 0.349 µM | IC50 (786-0): 33.3 µM | IC50 (HCC827): 24.2 µM | IC50 (K562): 0.77 µM | IC50 (MGC-803): 27 µM | IC50 (HepG2): > 100 µM
Structure (SMILES): COc1ccc(CN2C(=O)C(=O)c3cc(-c4ccc(CBr)cc4)ccc32)cc1
IC50 at 48 h [1]: 16 µM | IC50 at 48 h [2]: 1.99 µM
